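GI50 is the concentration that inhibits growth by half. TGI is the concentration that stops growth completely.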
Tests used:
Test in all cases: NCI-60 cell line screen, 384-well format
[1] = test system: SR leukemia
[2] = test system: NCI-H522 lung
[3] = test system: SF-268 CNS
[4] = test system: OVCAR-3 ovarian
[5] = test system: UO-31 renal
[6] = test system: HCC-2998 colon
[7] = test system: NCI/ADR-RES ovarian
[8] = test system: HOP-92 NSCLC
[9] = test system: HS 578T breast
[10] = test system: UACC-257 melanoma
[11] = test system: NCI-H322M lung
[12] = test system: UACC-62 melanoma
[13] = test system: RXF 393 renal
[14] = test system: HT29 colon
[15] = test system: SF-295 CNS
[16] = test system: PC-3 prostate
[17] = test system: KM12 colon
[18] = test system: HL-60(TB) leukemia
[19] = test system: OVCAR-8 ovarian
[20] = test system: RPMI-8226 leukemia
[21] = test system: HCT-116 colon
[22] = test system: K-562 leukemia
[23] = test system: OVCAR-5 ovarian
[24] = test system: SW-620 colon
[25] = test system: MOLT-4 leukemia
[26] = test system: EKVX NSCLC
[27] = test system: SN12C renal
[28] = test system: SNB-75 CNS
[29] = test system: SF-539 CNS
[30] = test system: HCT-15 colon
[31] = test system: BT-549 breast
[32] = test system: SK-MEL-2 melanoma
[33] = test system: DU-145 prostate
[34] = test system: CCRF-CEM leukemia
[35] = test system: ACHN renal
[36] = test system: T-47D breast
[37] = test system: MDA-MB-468 breast
[38] = test system: A498 renal
[39] = test system: NCI-H226 lung
[40] = test system: NCI-H23 lung
[41] = test system: SK-OV-3 ovarian
[42] = test system: NCI-H460 NSCLC
[43] = test system: U251 glioblastoma
[44] = test system: SNB-19 CNS
[45] = test system: COLO 205 colon
[46] = test system: MDA-MB-231 breast
[47] = test system: MALME-3M melanoma

C[C@H](NC(=O)c1c(C(F)F)nn(C)c1Oc1cccc(C(F)(F)F)c1)c1ccc(C(=O)O)cc1
GI50 [1]: > 100 µM | TGI [1]: > 100 µM | GI50 [2]: > 100 µM | TGI [2]: > 100 µM | GI50 [3]: > 100 µM | TGI [3]: > 100 µM | GI50 [4]: > 100 µM | TGI [4]: > 100 µM | GI50 [5]: > 100 µM | TGI [5]: > 100 µM | GI50 [6]: > 100 µM | TGI [6]: > 100 µM | GI50 [7]: > 100 µM | TGI [7]: > 100 µM | GI50 [8]: > 100 µM | TGI [8]: > 100 µM | GI50 [9]: > 100 µM | TGI [9]: > 100 µM | GI50 [10]: > 100 µM | TGI [10]: > 100 µM | GI50 [11]: > 100 µM | TGI [11]: > 100 µM | GI50 [12]: > 100 µM | TGI [12]: > 100 µM | GI50 [13]: > 100 µM | TGI [13]: > 100 µM | GI50 [14]: > 100 µM | TGI [14]: > 100 µM | GI50 [15]: > 100 µM | TGI [15]: > 100 µM | GI50 [16]: > 100 µM | TGI [16]: > 100 µM | GI50 [17]: > 100 µM | TGI [17]: > 100 µM | GI50 [18]: > 100 µM | TGI [18]: > 100 µM | GI50 [19]: > 100 µM | TGI [19]: > 100 µM | GI50 [20]: > 61.1 µM | TGI [20]: > 100 µM | GI50 [21]: > 100 µM | TGI [21]: > 100 µM | GI50 [22]: > 100 µM | TGI [22]: > 100 µM | GI50 [23]: > 100 µM | TGI [23]: > 100 µM | GI50 [24]: > 100 µM | TGI [24]: > 100 µM | GI50 [25]: > 100 µM | TGI [25]: > 100 µM | GI50 [26]: > 100 µM | TGI [26]: > 100 µM | GI50 [27]: > 100 µM | TGI [27]: > 100 µM | GI50 [28]: > 100 µM | TGI [28]: > 100 µM | GI50 [29]: > 100 µM | TGI [29]: > 100 µM | GI50 [30]: > 100 µM | TGI [30]: > 100 µM | GI50 [31]: > 100 µM | TGI [31]: > 100 µM | GI50 [32]: > 100 µM | TGI [32]: > 100 µM | GI50 [33]: > 100 µM | TGI [33]: > 100 µM | GI50 [34]: > 100 µM | TGI [34]: > 100 µM | GI50 [35]: > 100 µM | TGI [35]: > 100 µM | GI50 [36]: > 100 µM | TGI [36]: > 100 µM | GI50 [37]: > 100 µM | TGI [37]: > 100 µM | GI50 [38]: > 100 µM | TGI [38]: > 100 µM | GI50 [39]: > 100 µM | TGI [39]: > 100 µM | GI50 [40]: > 100 µM | TGI [40]: > 100 µM | GI50 [41]: > 100 µM | TGI [41]: > 100 µM | GI50 [42]: > 100 µM | TGI [42]: > 100 µM | GI50 [43]: > 100 µM | TGI [43]: > 100 µM | GI50 [44]: > 100 µM | TGI [44]: > 100 µM | GI50 [45]: > 100 µM | TGI [45]: > 100 µM | GI50 [46]: > 100 µM | TGI [46]: > 100 µM | GI50 [47]: > 100 µM | TGI [47]: > 100 µM

From PubChem BioAssay (NCI)
